Measurements taken from ChEMBL document CHEMBL5512640, “Discovery of novel itaconimide-based derivatives as potent HDAC inhibitors for the efficient treatment of prostate cancer” (Eur J Med Chem, 2024).
pIC50: −log10 of the molar value. Activity calls are given as the source filed them. The calls are words filed in the database; no cut-off is given here.

Legend:
[1] = AUC (0 to infinity) in Sprague-Dawley rat at 10 mg/kg, po measured upto 24 hrs by LC-MS/MS analysis; type: ADME, organism-based; conditions: in vivo
PC-3 = assay: Antiproliferative activity against human PC-3 cells incubated for 96 hrs by MTT assay; type: functional, cell-based; conditions: PC-3, 96 h
DU-145 [2] = assay: Antitumor activity against human DU-145 cells xenografted in Balb/c nude mouse model assessed as tumor growth inhibition at high dose administered as po once daily for 40 days relative to control; type: functional; conditions: time 40 day
MCF7 = assay: Antiproliferative activity against human MCF7 cells incubated for 96 hrs by MTT assay; type: functional, cell-based; conditions: MCF7, 96 h
HT-29 = assay: Antiproliferative activity against human HT-29 cells incubated for 96 hrs by MTT assay; type: functional, cell-based; conditions: HT-29, 96 h
[3] = Half life in Sprague-Dawley rat at 2 mg/kg, iv measured upto 24 hrs by LC-MS/MS analysis; type: ADME, organism-based; conditions: in vivo
[4] = Toxicity in Balb/c mouse assessed as effect on body weight at 100 mg/kg, po measured upto 40 days in presence of docetaxel; type: organism-based; conditions: in vivo, 960 h, time < 40 day
[5] = AUC (0 to infinity) in Sprague-Dawley rat at 2 mg/kg, iv measured upto 24 hrs by LC-MS/MS analysis; type: ADME, organism-based; conditions: in vivo
[6] = Acute toxicity in Sprague-Dawley rat assessed as pathological lesions at 500 to 4500 mg/kg, po measured after 15 days by H and E staining based analysis; type: organism-based; conditions: in vivo, 360 h, dose 500-4500 mg/kg, time 15 day
Histone deacetylase 1 = Histone deacetylase 1 (Homo sapiens, UniProt Q13547); assay: Inhibition of human HDAC1 incubated for 10 mins followed by fluorogenic substrate addition by fluorescence based analysis
Histone deacetylase 5 = Histone deacetylase 5 (Homo sapiens, UniProt Q9UQL6); assay: Inhibition of human HDAC5 incubated for 10 mins followed by fluorogenic substrate addition by fluorescence based analysis
DU-145 [7] = assay: Induction of apoptosis in human DU-145 cells measured after 72 hrs by annexin V-FITC and PI staining based flow cytometry analysis; type: functional, cell-based; conditions: dose 0.4-1.6 µM
[8] = Toxicity in Balb/c mouse assessed as effect on body weight at 100 to 200 mg/kg, po measured upto 40 days; type: organism-based; conditions: in vivo, 960 h, dose 100-200 mg/kg, time < 40 day
DU-145 [9] = assay: Inhibition of colony formation in human DU-145 cells assessed as suppression of colony formation measured after 2 weeks by crystal violet staining based analysis; type: functional, cell-based; conditions: dose 0.4-3.2 µM
LNCaP = assay: Antiproliferative activity against human LNCaP cells incubated for 96 hrs by MTT assay; type: functional, cell-based
DU-145 [10] = assay: Induction of apoptosis in human DU-145 cells assessed as apoptotic rate at 0.8 uM measured after 72 hrs by annexin V-FITC and PI staining based flow cytometry analysis (reference value: 3.41%); type: functional
DU-145 [11] = assay: Upregulation of Ac-H3 level in human DU-145 cells incubated for 24 hrs by Western blot analysis; type: functional, cell-based; conditions: dose 0.8-3.2 µM
Histone deacetylase 8 = Histone deacetylase 8 (Homo sapiens, UniProt Q9BY41); assay: Inhibition of human HDAC8 incubated for 10 mins followed by fluorogenic substrate addition by fluorescence based analysis
DU-145 [12] = assay: Induction of apoptosis in human DU-145 cells assessed as apoptotic rate at 1.6 uM measured after 72 hrs by annexin V-FITC and PI staining based flow cytometry analysis relative to control; type: functional
MDA-MB-231 = assay: Antiproliferative activity against human MDA-MB-231 cells incubated for 96 hrs by MTT assay; type: functional, cell-based; conditions: MDA-MB-231, 96 h
[13] = Half life in Sprague-Dawley rat at 10 mg/kg, po measured upto 24 hrs by LC-MS/MS analysis; type: ADME, organism-based; conditions: in vivo
[14] = Acute toxicity in male Sprague-Dawley rat assessed as effect on body weight at 500 to 4500 mg/kg, po measured every 3 days for 15 days; type: organism-based; conditions: in vivo, 360 h, dose 500-4500 mg/kg, time 15 day
DU-145 [15] = assay: Antitumor activity against human DU-145 cells xenografted in Balb/c nude mouse model assessed as tumor growth inhibition at 100 mg/kg, po administered once daily for 40 days in presence of docetaxel relative to control; type: functional; conditions: DU-145, 960 h, time 40 day, read-out: TGI
DU-145 [16] = assay: Antiproliferative activity against human DU-145 cells incubated for 96 hrs by MTT assay; type: functional, cell-based; conditions: DU-145, 96 h
DU-145 [17] = assay: Inhibition of cell migration in human DU-145 cells assessed as suppression of wound closure incubated for 12 hrs by wound healing assay; type: functional, cell-based; conditions: dose 0.2-1.6 µM
[18] = Acute toxicity in Sprague-Dawley rat assessed as effect on kidney at 500 to 4500 mg/kg, po measured after 15 days; type: organism-based; conditions: in vivo, 360 h, dose 500-4500 mg/kg, time 15 day
Histone deacetylase 2 = Histone deacetylase 2 (Homo sapiens, UniProt Q92769); assay: Inhibition of human HDAC2 incubated for 10 mins followed by fluorogenic substrate addition by fluorescence based analysis
DU-145 [19] = assay: Antitumor activity against human DU-145 cells xenografted in Balb/c nude mouse model assessed as tumor growth inhibition at 200 mg/kg, po administered once daily for 40 days in presence of docetaxel relative to control; type: functional; conditions: DU-145, 960 h, time 40 day, read-out: TGI
Histone deacetylase 11 = Histone deacetylase 11 (Homo sapiens, UniProt Q96DB2); assay: Inhibition of human HDAC11 incubated for 10 mins followed by fluorogenic substrate addition by fluorescence based analysis
NCI-H1650 = assay: Antiproliferative activity against human NCI-H1650 cells incubated for 96 hrs by MTT assay; type: functional, cell-based; conditions: NCI-H1650, 96 h
Histone deacetylase 7 = Histone deacetylase 7 (Homo sapiens, UniProt Q8WUI4); assay: Inhibition of human HDAC7 incubated for 10 mins followed by fluorogenic substrate addition by fluorescence based analysis
[20] = Volume of distribution in Sprague-Dawley rat at 2 mg/kg, iv measured upto 24 hrs by LC-MS/MS analysis; type: ADME, organism-based; conditions: in vivo
[21] = Acute toxicity in Sprague-Dawley rat assessed as effect on liver at 500 to 4500 mg/kg, po measured after 15 days; type: organism-based; conditions: in vivo, 360 h, dose 500-4500 mg/kg, time 15 day
DU-145 [22] = assay: Downregulation of HDAC6 expression in human DU-145 cells at 0.8 uM incubated for 24 hrs by Western blot analysis; type: functional, cell-based
HCT-116 = assay: Antiproliferative activity against human HCT-116 cells incubated for 96 hrs by MTT assay; type: functional, cell-based; conditions: HCT-116, 96 h
DU-145 [23] = assay: Upregulation of histone H3 level in human DU-145 cells incubated for 24 hrs by Western blot analysis; type: functional, cell-based; conditions: dose 0.8-3.2 µM
Histone deacetylase 4 = Histone deacetylase 4 (Homo sapiens, UniProt P56524); assay: Inhibition of human HDAC4 incubated for 10 mins followed by fluorogenic substrate addition by fluorescence based analysis
[24] = Acute toxicity in Sprague-Dawley rat assessed as effect on heart at 500 to 4500 mg/kg, po measured after 15 days; type: organism-based; conditions: in vivo, 360 h, dose 500-4500 mg/kg, time 15 day
Histone deacetylase 3 = Histone deacetylase 3 (Homo sapiens, UniProt O15379); assay: Inhibition of human HDAC3 incubated for 10 mins followed by fluorogenic substrate addition by fluorescence based analysis
[25] = target: Polyamine deacetylase HDAC10 (Homo sapiens, UniProt Q969S8); assay: Inhibition of human HDAC10 incubated for 10 mins followed by fluorogenic substrate addition by fluorescence based analysis
Polyamine deacetylase HDAC10, sequence (Q969S8 whole entry): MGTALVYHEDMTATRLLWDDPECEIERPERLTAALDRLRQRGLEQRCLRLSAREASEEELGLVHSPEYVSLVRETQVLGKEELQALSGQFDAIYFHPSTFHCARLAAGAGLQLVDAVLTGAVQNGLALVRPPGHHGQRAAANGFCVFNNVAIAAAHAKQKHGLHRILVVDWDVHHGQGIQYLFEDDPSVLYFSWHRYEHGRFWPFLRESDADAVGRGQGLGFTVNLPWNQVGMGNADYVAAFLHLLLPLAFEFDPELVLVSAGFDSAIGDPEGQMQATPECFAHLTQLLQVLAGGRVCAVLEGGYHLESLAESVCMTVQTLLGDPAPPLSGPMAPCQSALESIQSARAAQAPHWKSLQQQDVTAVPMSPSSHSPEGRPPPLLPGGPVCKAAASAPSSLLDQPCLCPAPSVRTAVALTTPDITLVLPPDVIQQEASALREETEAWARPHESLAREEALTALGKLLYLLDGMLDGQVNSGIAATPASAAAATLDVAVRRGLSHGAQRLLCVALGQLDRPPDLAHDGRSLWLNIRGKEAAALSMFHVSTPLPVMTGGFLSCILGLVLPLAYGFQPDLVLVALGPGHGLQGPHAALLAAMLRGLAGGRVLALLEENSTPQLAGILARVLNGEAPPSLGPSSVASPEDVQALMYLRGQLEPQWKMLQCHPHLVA

Histone deacetylase 7, sequence (Q8WUI4 whole entry): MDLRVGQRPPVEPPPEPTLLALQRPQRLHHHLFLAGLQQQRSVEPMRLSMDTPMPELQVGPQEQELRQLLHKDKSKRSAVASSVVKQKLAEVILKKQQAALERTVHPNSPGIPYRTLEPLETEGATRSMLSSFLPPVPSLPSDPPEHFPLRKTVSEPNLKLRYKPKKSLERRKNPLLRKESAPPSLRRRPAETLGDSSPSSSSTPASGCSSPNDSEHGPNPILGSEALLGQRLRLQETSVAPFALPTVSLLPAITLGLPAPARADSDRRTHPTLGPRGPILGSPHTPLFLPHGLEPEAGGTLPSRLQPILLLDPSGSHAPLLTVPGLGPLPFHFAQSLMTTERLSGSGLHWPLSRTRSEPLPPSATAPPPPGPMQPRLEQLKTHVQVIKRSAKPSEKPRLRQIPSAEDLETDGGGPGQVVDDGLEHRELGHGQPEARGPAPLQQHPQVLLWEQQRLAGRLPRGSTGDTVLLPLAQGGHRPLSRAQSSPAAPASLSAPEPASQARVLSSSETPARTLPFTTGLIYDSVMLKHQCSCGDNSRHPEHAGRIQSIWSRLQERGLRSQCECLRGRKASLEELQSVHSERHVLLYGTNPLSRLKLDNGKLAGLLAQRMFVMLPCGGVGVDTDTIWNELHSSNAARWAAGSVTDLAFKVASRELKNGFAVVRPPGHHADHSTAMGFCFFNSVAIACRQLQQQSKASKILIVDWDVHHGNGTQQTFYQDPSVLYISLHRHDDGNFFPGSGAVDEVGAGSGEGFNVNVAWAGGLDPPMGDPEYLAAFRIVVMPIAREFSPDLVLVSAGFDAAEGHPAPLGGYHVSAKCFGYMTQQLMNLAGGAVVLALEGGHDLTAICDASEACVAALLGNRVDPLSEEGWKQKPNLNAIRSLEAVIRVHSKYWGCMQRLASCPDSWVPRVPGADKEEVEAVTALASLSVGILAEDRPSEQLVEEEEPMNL
Histone deacetylase 11, sequence (Q96DB2 whole entry): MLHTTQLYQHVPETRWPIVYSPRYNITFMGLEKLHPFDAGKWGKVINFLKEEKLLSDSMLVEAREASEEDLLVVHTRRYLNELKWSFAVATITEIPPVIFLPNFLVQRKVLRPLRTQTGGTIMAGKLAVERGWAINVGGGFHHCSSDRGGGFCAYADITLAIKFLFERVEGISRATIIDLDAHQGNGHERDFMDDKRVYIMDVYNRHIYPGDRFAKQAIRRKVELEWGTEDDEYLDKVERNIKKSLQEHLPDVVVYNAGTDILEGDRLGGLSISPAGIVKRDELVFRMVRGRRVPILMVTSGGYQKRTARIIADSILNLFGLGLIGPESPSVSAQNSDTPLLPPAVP
Histone deacetylase 2, sequence (Q92769 whole entry): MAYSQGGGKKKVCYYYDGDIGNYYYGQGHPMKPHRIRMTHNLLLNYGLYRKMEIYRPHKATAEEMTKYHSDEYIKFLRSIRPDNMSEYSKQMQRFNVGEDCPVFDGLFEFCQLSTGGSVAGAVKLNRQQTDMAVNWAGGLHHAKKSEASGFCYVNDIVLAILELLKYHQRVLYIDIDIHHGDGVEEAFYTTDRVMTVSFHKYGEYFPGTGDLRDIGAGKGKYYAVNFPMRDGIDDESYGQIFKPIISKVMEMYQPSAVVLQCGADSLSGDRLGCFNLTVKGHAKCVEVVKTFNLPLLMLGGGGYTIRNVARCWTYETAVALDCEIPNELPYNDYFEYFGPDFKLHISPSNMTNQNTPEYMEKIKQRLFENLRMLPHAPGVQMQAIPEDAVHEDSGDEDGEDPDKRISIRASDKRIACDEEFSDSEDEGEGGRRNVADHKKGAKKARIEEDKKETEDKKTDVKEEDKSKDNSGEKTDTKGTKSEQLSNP
Histone deacetylase 8, sequence (Q9BY41 whole entry): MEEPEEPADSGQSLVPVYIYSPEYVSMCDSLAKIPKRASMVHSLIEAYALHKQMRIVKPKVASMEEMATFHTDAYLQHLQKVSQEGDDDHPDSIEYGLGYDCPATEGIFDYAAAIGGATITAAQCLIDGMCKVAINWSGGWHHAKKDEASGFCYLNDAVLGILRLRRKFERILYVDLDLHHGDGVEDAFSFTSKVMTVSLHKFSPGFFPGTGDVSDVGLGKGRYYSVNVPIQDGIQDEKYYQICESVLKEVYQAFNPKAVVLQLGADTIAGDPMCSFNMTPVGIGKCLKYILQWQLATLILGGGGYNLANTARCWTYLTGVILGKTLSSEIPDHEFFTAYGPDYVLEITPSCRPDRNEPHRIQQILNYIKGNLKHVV
Histone deacetylase 3, sequence (O15379 whole entry): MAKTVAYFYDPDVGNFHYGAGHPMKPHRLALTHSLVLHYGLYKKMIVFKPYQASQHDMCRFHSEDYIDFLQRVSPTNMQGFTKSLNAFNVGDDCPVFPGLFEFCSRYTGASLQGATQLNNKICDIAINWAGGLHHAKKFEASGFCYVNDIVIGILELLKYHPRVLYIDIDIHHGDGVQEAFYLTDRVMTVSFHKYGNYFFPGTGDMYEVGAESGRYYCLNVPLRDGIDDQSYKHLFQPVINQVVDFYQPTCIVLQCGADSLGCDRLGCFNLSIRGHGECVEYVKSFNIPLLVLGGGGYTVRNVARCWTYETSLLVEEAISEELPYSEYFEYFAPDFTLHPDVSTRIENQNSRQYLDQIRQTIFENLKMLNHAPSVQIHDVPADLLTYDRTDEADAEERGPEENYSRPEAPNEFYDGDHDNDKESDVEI
Histone deacetylase 5, sequence (Q9UQL6 whole entry): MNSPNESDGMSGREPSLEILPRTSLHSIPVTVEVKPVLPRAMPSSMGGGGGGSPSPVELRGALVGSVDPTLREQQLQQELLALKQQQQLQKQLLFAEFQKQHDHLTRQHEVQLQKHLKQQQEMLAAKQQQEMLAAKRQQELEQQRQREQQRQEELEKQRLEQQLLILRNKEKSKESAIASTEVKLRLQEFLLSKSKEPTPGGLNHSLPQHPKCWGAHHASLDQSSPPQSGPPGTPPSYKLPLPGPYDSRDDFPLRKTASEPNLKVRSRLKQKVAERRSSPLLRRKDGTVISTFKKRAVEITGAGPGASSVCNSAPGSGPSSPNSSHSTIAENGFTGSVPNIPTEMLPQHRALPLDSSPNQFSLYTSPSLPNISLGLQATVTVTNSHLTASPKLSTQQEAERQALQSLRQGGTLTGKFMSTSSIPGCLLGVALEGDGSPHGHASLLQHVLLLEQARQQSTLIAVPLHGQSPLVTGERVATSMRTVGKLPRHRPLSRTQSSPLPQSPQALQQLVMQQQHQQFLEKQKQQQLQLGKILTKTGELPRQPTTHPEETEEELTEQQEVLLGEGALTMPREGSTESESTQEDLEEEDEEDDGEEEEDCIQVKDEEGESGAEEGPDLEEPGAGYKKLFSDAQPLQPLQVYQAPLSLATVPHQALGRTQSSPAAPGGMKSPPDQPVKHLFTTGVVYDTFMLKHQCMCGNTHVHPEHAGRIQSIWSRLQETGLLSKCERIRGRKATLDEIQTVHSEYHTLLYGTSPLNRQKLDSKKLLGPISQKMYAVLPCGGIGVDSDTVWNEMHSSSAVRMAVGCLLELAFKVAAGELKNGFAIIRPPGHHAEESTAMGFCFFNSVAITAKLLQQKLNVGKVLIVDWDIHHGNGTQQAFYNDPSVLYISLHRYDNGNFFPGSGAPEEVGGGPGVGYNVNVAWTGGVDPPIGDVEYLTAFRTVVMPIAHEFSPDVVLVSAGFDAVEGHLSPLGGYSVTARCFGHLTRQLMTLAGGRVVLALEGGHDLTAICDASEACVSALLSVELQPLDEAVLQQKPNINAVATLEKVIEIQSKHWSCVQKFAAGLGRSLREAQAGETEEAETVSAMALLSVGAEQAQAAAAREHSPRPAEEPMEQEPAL
Histone deacetylase 1, sequence (Q13547 whole entry): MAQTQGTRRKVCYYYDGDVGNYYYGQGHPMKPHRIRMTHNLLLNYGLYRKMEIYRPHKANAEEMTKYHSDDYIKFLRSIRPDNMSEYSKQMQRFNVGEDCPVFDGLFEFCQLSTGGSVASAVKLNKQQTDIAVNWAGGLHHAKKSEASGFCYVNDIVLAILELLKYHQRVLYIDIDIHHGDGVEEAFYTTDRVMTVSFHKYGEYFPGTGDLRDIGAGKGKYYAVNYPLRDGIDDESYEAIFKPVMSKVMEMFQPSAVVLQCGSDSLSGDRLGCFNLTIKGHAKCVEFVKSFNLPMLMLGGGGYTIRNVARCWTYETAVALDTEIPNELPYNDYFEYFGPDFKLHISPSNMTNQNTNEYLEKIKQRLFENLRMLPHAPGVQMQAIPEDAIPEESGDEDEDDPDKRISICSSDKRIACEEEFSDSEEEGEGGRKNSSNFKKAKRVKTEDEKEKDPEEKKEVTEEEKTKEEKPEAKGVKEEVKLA

**Q.** What does the source list for COc1ccccc1/C=C1\CC(=O)N(CCCCCCC(=O)NO)C1=O?
**A.** AUC(0-inf) [1]: 3800 ng·h/mL; pIC50 (PC-3): 6.14; TGI (DU-145 [2]): 68%; pIC50 (MCF7): 6.46; pIC50 (HT-29): 5.98; half-life [3]: 3.12 h; Activity [4]: Non-Toxic; AUC(0-inf) [5]: 1630 ng·h/mL; Activity [6]: Non-Toxic; pIC50 (Histone deacetylase 1): 7.90; pIC50 (Histone deacetylase 5): < 5.30; Activity (DU-145 [7]): Dose-Dependent Effect; Activity [8]: Non-Toxic; inhibition (DU-145 [9]): Dose-Dependent Effect; pIC50 (LNCaP): 6.20; Activity (DU-145 [10]): 27.45%; Activity (DU-145 [11]): Dose-Dependent Effect; pIC50 (Histone deacetylase 8): 6.25; Activity (DU-145 [12]): 59.87%; pIC50 (MDA-MB-231): 6.51; half-life [13]: 2.87 h; Activity [14]: Non-Toxic; inhibition in vivo at 100 mg/kg (DU-145 [15]): 71.4%; pIC50 (DU-145 [16]): 6.80; inhibition (DU-145 [17]): Dose-Dependent Effect; Activity [18]: Non-Toxic; pIC50 (Histone deacetylase 2): 7.85; inhibition in vivo at 200 mg/kg (DU-145 [19]): 81.3%; pIC50 (Histone deacetylase 11): < 5.30; pIC50 (NCI-H1650): 5.45; pIC50 (Histone deacetylase 7): < 5.30; Vd [20]: 4.63 L/kg; Activity [21]: Non-Toxic; Activity (DU-145 [22]): Active; pIC50 (HCT-116): 6.33; Activity (DU-145 [23]): Dose-Dependent Effect; pIC50 (Histone deacetylase 4): < 5.30; Activity [24]: Non-Toxic; pIC50 (Histone deacetylase 3): 7.70; pIC50 [25]: 7.14
